This experiment concerns formation of peroxide lipids (rat brain homogenate). Description: activity of inhibiting formation of peroxide lipids (TBA assay, rat brain homogenate supernatant). The format is biochemical, rat (Wistar). The following applies: final concentration 10^-4 M, pH 7.4, 37° C., 30 minutes, malondialdehyde by TBA assay vs control, 100 µM. As to the method:
With respect to the compounds of the present invention, the activity of inhibiting formation of peroxide lipids was tested according to the following procedures.
Male rats of the Wistar system having a body weight of 200 to 250 g were used. The rat brain was extracted by beheading and homogenized by 50 mM phosphate buffer solution (pH 7.4)(PBS), and centrifugal separation was conducted for 15 minutes under 1000 G. The supernatant was frozen at -30° C. and stored, and when the test was carried out, the frozen supernatant was thawed in running water and diluted with PBS so that the volume was trebled, whereby a living body sample was prepared.
Two samples were formed by adding 10 μl of a solution of the test compound (the final concentration was 10^-4 M) to 990 μl of the living body sample. One sample was incubated at 37° C. for 30 minutes and 0.2 ml of a 35% solution of perchloric acid was added to stop the reaction. The other sample was not incubated but the solution of perchloric acid was immediately added to stop the reaction. Both the reaction liquids were subjected to centrifugal separation at 3000 rpm for 15 minutes. With respect to each sample, by using 0.5 ml of the supernatant, the amount of the peroxide lipid was determined according to the TBA assay [Okawa et al., Anal. Biochem., 95. 351 (1979)], and the difference between both the measured values was determined as the amount of malondialdehyde (MDS)(the unit: nmole/mg protein). The peroxide lipid inhibition ratio was calculated from this MDA amount (A) and the control value (B) (the MDA amount obtained when the test compound was not added) according to the following formula: [formula]
As for `c1coc(CN2CCOc3ccccc32)c1` [Compound 11, 4-(2-furyl)methyl-3,4-dihydro-2H-benzooxazine], the “Inhibition Ratio (%) (peroxide lipid inhibition ratio)” value (shortened to “Inhibition Ratio (%)”) is on record as 56.0%.
`Clc1ccc2c(c1)CCCN2Cc1ccco1` [Compound 21]: the “Inhibition Ratio (%)” value was found to be 87.2%.
With `Cc1ncoc1CN1CCCc2ccccc21` [Compound 12] the figure was 97.8%; with `c1coc(CN2CCc3ccccc32)c1` [Compound 10], 87.0%; with `c1csc(CN2CCCc3ccccc32)c1` [Compound 5], 93.6%.
As to `c1coc(CN2CCSc3ccccc32)c1` [Compound 19, 4-(2-furyl)methyl-3,4-dihydro-2H-1,4-benzothiazine], the “Inhibition Ratio (%)” value is listed as 80.9%.
The result for `Cc1nc(CN2CCc3ccccc32)cs1` [Compound 4] reads 84.6%.
The result for `Cn1cncc1CN1CCCc2ccccc21` [Compound 1] reads 99.0%; that for `CCOC(=O)c1cncnc1CN1CCCc2ccccc21` [Compound 17], 100.0%.
With `c1ccc(CN2CCCc3ccccc32)nc1` [Compound 14] the figure was 100.0%.
On to `CN(C)C(=O)n1cnc(CN2c3ccccc3CCc3ccccc32)c1` [Compound 9, 1-(N,N-dimethylcarbamoyl)-4-(10,11-dihydro-5H-dibenzo[b,f]azepin-5-ylmethyl)imidazole], for which the “Inhibition Ratio (%)” value turned out to be 94.0%.
Regarding `Cc1ccc2c(c1)CCCN2Cc1ccco1` [Compound 20], the “Inhibition Ratio (%)” value is recorded as 85.1%.
The result for `O=C1C=C(OCCN2CCCc3ccccc32)C(=O)c2ccccc21` [Compound 18] reads 97.9%; that for `CCOC(=O)c1cnc(-c2ccccc2)nc1CN1CCCc2ccccc21` [Compound 16], 100.0%; that for `Cc1nc(CN2CCCc3ccccc32)cs1` [Compound 3], 88.7%.
With `CCOC(=O)c1cnc(C)nc1CN1CCCc2ccccc21` [Compound 15] the figure was 100.0%.
For the compound `c1coc(CCCN2CCCc3ccccc32)c1` [Compound 13], the “Inhibition Ratio (%)” value came to 90.5%.
With `c1csc(CN2CCc3ccccc32)c1` [Compound 6] the figure was 95.4%.

The values are drawn from patent US4962200A, “Nitrogen-containing compound” (Mitsui Petrochemical Industries, Ltd., priority 1987, dated 1990).
